Calls of active or inactive are those of the source.
Assays:
Type in all cases: functional
Cysteine protease ATG4B = target: T1, Cysteine protease ATG4B (Homo sapiens, UniProt Q9Y4P1);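 also: Fluorescence-based dose-response confirmation assay measuring inhibition of ATG4B activity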
T1 sequence (Q9Y4P1 whole entry): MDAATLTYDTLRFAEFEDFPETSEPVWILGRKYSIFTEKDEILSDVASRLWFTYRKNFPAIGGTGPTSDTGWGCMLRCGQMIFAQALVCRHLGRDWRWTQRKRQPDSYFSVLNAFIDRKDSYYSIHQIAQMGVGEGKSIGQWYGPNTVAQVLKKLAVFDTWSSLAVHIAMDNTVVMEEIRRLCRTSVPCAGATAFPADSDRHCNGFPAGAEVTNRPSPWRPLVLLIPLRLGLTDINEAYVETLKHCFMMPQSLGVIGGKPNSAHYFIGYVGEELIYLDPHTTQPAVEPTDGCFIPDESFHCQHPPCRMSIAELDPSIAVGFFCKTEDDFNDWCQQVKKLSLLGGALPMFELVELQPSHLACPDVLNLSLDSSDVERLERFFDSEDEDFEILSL

Phospholipase A2 = Phospholipase A2 (Homo sapiens, UniProt P04054);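 also: confirmatory dose-response counterscreen on phospholipase A2, testing hits that came from an ultra-high-throughput screen for ATG4B inhibitors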
[1] = target: T2, Sentrin-specific protease 8 (Homo sapiens, UniProt Q96LD8); test: SENP8 protease inhibitors, SAR follow-up, biochemical, luminescence (AID 504501)
T2 sequence (Q96LD8 whole entry): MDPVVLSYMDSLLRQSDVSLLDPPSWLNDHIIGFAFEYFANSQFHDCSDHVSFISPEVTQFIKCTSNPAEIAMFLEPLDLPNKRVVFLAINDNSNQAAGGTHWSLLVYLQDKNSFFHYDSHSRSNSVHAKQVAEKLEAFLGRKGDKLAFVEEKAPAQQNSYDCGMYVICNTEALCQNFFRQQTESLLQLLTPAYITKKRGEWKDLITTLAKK

Caspase-3 = target: T3, Caspase-3 (Homo sapiens, UniProt P42574); test: SAR Analysis of small molecule inhibitors of Sentrin-specific proteases (SENPs) using a Caspase-3 Selectivity assay. [Related pubchem assays (depositor defined):AID2540, AID2599, AID434973, AID489001]
T3 sequence (P42574 whole entry): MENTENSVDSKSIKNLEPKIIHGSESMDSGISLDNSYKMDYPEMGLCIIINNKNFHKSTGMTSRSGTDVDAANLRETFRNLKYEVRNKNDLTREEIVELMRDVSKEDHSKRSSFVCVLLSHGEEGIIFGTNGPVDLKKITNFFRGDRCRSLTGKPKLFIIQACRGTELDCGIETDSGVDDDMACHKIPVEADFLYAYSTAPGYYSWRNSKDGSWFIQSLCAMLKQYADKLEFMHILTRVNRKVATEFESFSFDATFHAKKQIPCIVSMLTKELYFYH

[2] = target: T4, Sentrin-specific protease 6 (Homo sapiens, UniProt Q9GZR1); test: SAR Analysis of small molecule inhibitors of Sentrin-specific protease 6 (SENP6) using a Luminescent assay. [Related pubchem assays (depositor defined):AID2582, AID2599]
T4 sequence (Q9GZR1 whole entry): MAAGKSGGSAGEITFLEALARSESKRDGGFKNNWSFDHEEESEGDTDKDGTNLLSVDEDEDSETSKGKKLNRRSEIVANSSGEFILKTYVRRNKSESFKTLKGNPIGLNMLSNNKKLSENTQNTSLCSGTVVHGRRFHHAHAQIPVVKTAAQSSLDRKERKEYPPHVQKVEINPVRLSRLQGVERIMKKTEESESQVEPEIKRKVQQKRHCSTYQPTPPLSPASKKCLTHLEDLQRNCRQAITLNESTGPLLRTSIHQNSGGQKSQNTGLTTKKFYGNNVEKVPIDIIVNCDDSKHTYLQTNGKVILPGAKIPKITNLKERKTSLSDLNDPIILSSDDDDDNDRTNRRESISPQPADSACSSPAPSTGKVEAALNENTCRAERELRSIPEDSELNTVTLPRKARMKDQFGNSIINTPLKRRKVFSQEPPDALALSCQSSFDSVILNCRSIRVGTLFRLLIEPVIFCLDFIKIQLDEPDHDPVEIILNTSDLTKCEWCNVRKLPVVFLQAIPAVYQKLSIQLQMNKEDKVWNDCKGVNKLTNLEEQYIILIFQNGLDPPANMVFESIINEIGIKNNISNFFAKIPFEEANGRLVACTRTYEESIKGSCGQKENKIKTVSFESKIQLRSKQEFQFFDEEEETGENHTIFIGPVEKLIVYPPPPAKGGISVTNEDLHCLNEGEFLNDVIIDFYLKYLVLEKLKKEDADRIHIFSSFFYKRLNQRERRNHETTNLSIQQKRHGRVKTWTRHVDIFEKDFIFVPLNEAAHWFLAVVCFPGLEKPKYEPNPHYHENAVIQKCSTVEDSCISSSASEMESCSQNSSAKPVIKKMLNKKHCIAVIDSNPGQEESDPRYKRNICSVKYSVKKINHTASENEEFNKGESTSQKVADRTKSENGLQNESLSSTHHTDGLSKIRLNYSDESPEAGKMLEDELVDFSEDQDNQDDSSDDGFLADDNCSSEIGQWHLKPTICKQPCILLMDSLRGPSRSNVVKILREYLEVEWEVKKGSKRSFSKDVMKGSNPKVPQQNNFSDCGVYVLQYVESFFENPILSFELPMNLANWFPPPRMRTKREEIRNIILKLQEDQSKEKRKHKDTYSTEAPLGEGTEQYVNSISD

[3] = target: T5, Sentrin-specific protease 7 (Homo sapiens, UniProt Q9BQF6); test: SENP7 protease inhibitors, SAR follow-up, biochemical, luminescence (AID 504497)
T5 sequence (Q9BQF6 whole entry): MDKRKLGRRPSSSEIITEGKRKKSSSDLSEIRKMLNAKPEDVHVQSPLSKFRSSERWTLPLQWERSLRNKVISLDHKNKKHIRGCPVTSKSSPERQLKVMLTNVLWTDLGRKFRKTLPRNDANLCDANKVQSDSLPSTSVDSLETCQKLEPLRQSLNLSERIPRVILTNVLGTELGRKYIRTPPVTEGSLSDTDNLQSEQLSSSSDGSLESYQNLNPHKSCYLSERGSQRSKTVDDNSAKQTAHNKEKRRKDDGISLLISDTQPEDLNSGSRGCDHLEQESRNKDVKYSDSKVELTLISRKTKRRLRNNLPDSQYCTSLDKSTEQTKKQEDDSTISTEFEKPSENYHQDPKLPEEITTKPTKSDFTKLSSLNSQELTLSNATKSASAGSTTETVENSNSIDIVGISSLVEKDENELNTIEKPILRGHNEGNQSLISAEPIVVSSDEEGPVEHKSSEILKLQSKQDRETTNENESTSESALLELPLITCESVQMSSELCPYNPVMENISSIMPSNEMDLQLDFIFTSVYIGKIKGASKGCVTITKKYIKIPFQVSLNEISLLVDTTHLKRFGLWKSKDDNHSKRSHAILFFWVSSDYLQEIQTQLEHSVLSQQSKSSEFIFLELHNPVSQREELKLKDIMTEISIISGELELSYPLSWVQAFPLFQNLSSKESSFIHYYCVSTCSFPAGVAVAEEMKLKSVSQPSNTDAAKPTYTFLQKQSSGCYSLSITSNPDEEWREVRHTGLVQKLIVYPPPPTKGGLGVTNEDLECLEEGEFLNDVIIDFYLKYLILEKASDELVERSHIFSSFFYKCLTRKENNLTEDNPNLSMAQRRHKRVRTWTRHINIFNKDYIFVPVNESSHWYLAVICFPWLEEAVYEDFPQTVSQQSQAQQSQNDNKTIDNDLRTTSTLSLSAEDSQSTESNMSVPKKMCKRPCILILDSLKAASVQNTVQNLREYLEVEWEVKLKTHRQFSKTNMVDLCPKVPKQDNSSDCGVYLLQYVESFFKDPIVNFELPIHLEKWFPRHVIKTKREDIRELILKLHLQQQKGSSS

[4] = target: Ras and Rab interactor 1/Tyrosine-protein kinase ABL1 (Homo sapiens, UniProt P00519+Q13671);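 also: biochemical TR-FRET dose-response test measuring inhibition of binding between Rin1 and Abl proteins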
[5] = target: T6, Replicative DNA helicase DnaB (Mycobacterium tuberculosis, UniProt P9WMR3); test: DnaB intein splicing inhibitors, dose response, biochemical, cell-free fluorescence (AID 449749)
T6 sequence (P9WMR3 whole entry): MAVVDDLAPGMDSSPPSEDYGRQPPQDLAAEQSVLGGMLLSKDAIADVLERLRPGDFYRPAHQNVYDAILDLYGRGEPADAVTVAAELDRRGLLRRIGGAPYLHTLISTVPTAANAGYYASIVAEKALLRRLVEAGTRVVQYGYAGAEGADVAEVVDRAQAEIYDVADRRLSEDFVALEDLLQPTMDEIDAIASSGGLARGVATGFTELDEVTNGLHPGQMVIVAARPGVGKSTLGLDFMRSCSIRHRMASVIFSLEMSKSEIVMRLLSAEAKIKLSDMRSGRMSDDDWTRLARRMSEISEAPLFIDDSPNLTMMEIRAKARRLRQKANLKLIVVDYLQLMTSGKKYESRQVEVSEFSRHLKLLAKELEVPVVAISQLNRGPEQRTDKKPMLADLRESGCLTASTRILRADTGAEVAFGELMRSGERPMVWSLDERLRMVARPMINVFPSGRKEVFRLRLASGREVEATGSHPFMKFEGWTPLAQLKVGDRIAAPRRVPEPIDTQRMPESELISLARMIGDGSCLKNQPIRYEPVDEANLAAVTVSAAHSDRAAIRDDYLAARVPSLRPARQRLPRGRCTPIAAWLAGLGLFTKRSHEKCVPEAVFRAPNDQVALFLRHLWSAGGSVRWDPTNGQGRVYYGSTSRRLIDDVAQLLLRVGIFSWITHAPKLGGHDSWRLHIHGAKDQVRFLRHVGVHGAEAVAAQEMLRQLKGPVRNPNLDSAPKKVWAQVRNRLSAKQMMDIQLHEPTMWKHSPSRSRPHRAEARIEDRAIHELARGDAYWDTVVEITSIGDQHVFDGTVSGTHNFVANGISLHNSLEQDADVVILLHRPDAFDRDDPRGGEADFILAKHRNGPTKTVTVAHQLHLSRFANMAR

Vero = Vero cell cytotoxicity, cytotoxicity control for flavivirus capping enzyme inhibitors (AID 588742); conditions: Chlorocebus sabaeus
Protein RecA = target: T7, Protein RecA (Mycobacterium tuberculosis, UniProt P9WHJ3); test: Fluorescence Cell-Free Homogeneous Dose Retest to Identify Inhibitors of RecA-Intein Splicing Activity. [Related pubchem assays (depositor defined):AID2097, AID2223, AID489010, AID492950]
T7 sequence (P9WHJ3 whole entry): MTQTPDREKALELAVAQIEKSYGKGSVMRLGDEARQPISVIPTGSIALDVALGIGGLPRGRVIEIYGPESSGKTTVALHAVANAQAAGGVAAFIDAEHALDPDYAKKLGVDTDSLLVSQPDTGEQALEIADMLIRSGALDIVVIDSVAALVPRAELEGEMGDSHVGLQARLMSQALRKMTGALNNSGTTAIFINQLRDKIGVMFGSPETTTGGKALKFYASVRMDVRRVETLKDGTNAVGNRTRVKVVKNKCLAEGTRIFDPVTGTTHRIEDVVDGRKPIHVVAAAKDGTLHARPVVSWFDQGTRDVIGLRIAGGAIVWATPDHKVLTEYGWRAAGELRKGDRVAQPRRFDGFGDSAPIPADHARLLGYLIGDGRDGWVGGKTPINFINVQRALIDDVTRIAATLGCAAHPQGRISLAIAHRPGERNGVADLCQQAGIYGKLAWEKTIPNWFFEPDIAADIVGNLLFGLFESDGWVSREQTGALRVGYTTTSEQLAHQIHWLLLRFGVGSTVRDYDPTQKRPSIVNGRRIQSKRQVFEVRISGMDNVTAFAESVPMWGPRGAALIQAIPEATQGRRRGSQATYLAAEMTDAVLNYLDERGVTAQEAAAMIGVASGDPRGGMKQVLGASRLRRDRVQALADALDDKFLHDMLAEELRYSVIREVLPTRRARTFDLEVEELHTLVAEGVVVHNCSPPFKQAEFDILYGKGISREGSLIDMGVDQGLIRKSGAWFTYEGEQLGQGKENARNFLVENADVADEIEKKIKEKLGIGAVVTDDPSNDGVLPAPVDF

Genome polyprotein = Genome polyprotein (dengue virus type 2, UniProt P29990); test: Dengue-2 NS5 methyltransferase inhibitors, primary screen, biochemical, confirmation dose response (AID 588689)
Chain of Genome polyprotein (P29990 2492-3391 limits assumed): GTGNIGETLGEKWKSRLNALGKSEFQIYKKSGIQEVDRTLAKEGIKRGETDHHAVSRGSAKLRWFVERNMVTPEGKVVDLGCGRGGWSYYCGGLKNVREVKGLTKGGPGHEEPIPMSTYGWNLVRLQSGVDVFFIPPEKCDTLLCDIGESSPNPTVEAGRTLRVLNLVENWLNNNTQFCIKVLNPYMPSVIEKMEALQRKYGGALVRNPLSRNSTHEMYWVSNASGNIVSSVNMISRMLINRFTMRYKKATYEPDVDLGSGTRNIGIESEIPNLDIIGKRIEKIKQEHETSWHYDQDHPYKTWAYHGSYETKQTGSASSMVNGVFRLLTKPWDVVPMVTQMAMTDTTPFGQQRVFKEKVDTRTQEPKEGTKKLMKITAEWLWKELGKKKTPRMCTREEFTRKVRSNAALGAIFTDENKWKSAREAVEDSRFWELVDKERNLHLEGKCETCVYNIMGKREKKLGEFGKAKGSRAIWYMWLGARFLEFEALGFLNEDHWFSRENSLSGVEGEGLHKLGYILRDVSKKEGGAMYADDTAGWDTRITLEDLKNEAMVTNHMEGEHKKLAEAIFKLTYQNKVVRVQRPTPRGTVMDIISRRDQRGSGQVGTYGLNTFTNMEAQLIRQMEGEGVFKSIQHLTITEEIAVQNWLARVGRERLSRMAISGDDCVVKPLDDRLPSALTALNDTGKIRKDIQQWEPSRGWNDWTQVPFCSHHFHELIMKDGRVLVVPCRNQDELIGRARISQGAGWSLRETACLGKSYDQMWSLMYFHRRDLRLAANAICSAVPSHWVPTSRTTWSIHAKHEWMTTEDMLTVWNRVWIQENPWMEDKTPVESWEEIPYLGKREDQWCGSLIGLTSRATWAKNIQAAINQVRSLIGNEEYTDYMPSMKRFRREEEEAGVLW

Chain of Ras and Rab interactor 1/Tyrosine-protein kinase ABL1 (P00519 whole entry): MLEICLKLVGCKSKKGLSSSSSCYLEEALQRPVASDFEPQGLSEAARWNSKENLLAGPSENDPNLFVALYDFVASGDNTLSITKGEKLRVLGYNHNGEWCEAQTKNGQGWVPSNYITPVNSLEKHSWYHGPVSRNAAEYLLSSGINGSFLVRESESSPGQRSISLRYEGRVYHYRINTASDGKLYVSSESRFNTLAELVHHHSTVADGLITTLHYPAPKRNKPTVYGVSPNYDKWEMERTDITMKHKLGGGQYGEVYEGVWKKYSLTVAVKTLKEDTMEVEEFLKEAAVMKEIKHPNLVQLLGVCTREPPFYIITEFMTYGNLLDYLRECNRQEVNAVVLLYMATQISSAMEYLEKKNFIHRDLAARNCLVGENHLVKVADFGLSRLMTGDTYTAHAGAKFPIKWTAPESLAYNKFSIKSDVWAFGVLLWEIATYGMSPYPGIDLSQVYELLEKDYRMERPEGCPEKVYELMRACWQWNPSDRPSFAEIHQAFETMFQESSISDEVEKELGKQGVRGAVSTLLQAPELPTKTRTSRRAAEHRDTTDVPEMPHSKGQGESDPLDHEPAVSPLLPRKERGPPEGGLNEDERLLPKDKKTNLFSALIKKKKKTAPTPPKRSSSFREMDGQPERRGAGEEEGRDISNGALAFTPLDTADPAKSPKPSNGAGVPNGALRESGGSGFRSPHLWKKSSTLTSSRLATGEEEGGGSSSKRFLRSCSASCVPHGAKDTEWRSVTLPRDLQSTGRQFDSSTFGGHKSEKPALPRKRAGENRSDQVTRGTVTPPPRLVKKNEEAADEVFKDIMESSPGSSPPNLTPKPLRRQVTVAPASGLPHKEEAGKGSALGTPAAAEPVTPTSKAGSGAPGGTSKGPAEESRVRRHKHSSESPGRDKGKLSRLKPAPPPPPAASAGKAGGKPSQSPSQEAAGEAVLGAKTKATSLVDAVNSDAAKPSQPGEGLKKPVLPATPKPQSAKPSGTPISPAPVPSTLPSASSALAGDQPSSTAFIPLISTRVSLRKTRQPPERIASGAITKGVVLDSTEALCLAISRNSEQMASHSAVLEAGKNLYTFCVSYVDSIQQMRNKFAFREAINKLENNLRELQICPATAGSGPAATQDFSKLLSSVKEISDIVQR
Chain of Ras and Rab interactor 1/Tyrosine-protein kinase ABL1 (Q13671 whole entry): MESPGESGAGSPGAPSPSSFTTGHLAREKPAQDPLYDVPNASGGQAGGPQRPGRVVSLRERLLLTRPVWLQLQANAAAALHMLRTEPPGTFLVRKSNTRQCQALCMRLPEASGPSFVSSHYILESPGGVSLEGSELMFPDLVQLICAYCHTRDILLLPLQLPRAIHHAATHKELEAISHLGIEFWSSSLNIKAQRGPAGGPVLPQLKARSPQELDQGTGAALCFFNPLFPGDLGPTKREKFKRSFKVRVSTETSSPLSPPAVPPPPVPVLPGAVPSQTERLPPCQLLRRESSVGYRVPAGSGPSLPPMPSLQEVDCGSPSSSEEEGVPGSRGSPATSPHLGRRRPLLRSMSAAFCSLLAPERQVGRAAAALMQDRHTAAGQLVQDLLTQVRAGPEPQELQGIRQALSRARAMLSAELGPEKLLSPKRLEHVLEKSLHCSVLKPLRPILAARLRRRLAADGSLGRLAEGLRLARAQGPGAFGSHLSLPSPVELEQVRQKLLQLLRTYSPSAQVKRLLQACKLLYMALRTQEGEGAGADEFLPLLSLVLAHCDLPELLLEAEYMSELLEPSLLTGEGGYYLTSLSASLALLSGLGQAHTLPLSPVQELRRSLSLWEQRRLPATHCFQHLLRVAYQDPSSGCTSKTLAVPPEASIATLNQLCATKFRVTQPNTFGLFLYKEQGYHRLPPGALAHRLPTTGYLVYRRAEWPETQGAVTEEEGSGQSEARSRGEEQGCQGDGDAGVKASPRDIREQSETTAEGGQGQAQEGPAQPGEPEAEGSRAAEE
Chain of Phospholipase A2 (P04054 whole entry): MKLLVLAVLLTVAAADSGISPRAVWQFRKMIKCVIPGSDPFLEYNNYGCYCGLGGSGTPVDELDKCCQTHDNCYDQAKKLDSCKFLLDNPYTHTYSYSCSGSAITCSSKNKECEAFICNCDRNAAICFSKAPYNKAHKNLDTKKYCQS

Nc1nn(-c2ccccc2)c(N)c1N=Nc1ccccc1
IC50 (Cysteine protease ATG4B): 11.9 µM (active)
IC50 (Phospholipase A2): 9 µM (active)

CC(C)(C)c1ccccc1/N=C/c1ccc2ccccc2n1
IC50 (Cysteine protease ATG4B): 14.2 µM (active)
IC50 (Phospholipase A2): 16.2 µM (active)

COc1ccc2nc(NC(=O)c3ccc4c(c3)OCCO4)sc2c1
IC50 [1]: > 99 µM (inactive)
IC50 (Caspase-3): > 99 µM (inactive)
IC50 [2]: > 99 µM (inactive)
IC50 [3]: > 99 µM (inactive)

Cc1csc(C(=O)Nc2nc3ccc(Cl)cc3s2)c1
IC50 [1]: > 99 µM (inactive)
IC50 (Caspase-3): 36 µM (active)
IC50 [2]: > 99 µM (inactive)
IC50 [3]: 89 µM (active)

COc1ccc(CCNc2cc(=O)[nH]c(N)n2)cc1
IC50 [4]: 5.15 µM (active)

CCOc1ccc(CCNC(=O)CN2C(=O)c3cccnc3Oc3ccc(Cl)cc32)cc1
IC50 [4]: > 73.5 µM (inactive)

Cc1cc(NC(=O)COC(=O)CNC(=O)c2sc3ccccc3c2Cl)no1
IC50 [1]: > 99 µM (inactive)
IC50 (Caspase-3): > 99 µM (inactive)
IC50 [2]: > 99 µM (inactive)
IC50 [3]: > 99 µM (inactive)

Cc1nn(Cc2ccccc2)c2c1C(c1cccc(Cl)c1)C(C#N)=C(N)O2 (centres undefined)
AC50 [5]: 5.7 µM (active)
CC50 (Vero): > 40 µM (active)
EC50 (Protein RecA): 3.26 µM (active)
IC50 (Genome polyprotein): > 100 µM (active)

O=C(O)c1cccc(CN2C(=O)S/C(=C/c3cccc([N+](=O)[O-])c3)C2=O)c1
CC50 (Vero): > 40 µM (active)
IC50 (Genome polyprotein): 83.2 µM (active)

Reference: ChEMBL document CHEMBL1201862, “PubChem BioAssay data set” (2004)
